This data set is described as follows: Storage stability of STI-Cl at room temperature. The format is physicochemical. An excerpt:
Attempts to make radiolabeling precursor, triflate, mesylate active leaving group from STI-OH failed because it was easily degraded into a mixture of starting material alcohol and STI-Cl during the purification of chromatography on Silica Gel. The behavior of these β-triflate amines may be due to the participation effect of nitrogen which cause triflate to leave by aliphatic chain cyclisation giving the aziridinium ion, which in turn reacts with the nucleophilic agent OH^−, Cl^−. In order to get a pure precursor, STI-Cl analog was selected as a target compound. The hydroxyl-Benzoic acid (9c) was treated with thionyl chloride to achieve the corresponding chloro-acid chloride dihydrochloride (10d). Subsequent condensation with N-(2-Methyl-5-aminophenyl)-4-(3-pyridyl)-2-pyrimidine-amine (6) in pyridine affords the STI-Cl. […] The Sti-Cl was treated with tetra ammonia fluoride at 80° C. in acetonitrile for 30 mins to generate cold Sti-F. Sti-Cl was also treated with tetra ammonia fluoride at 80° C. in acetonitrile microwave for 5 mins to generate cold Sti-F. The traditional heating method gave more yield and the microwave condition gave more clean reaction. (FIG. 3).

Structures are written as SMILES.

Take `Cc1ccc(NC(=O)c2ccc(CN3CCN(CCCl)CC3)cc2)cc1Nc1nccc(-c2cccnc2)n1` [STI-Cl]: the stability result is “not stable and decomposed at room temperature over two weeks”.

(Values after patent US20110097268A1, “RADIOHALOIMATINIBS AND METHODS OF THEIR SYNTHESIS AND USE IN PET IMAGING OF CANCERS” (priority 2006, published 2011).)
